In US6630125B2, “18F-labeled choline analogs” (priority 2000, dated 2003):

How the values were obtained:
[1] = test system: patients with prostate cancer; experiment: PET imaging in patients with prostate cancer; details: human, in vivo
Procedure: The distribution of FCH in PET imaging studies was evaluated in 14 patients with prostate cancer, 14 patients with breast cancer, and 5 patients with brain tumors. Imaging was performed using the Advance PET scanner (GE Medical Systems, Milwaukee, Wis.). […] In prostate cancer patients, a transmission scan of the pelvic region was obtained before administration of radiotracer. FCH (2.5-5 mCi) was administered intravenously, and dynamic imaging of the pelvis region was commenced for 20-30 min. During image reconstruction, the emission data in the pelvic region were corrected for photon attenuation using the transmission scan. Immediately following the dynamic scan, a whole-body emission scan was performed without transmission scanning for attenuation correction. The images were reconstructed using an Ordered Subset Expectation Maximum (OS-EM) algorithm. Regions-of-interest were drawn manually on the attenuation corrected images for evaluation of FCH kinetics in tissues. Standardized uptake values of FCH uptake in tissues were calculated using the attenuation-corrected images according to the equation: [formula]
Patient 2: Transmission and FCH emission scans of a person with hormone naive clinical stage T2 prostate cancer were commenced over the lower pelvis.
The same patient was scanned with FDG within the same week (FIG. 8).
Patient 4: A person with a history of clinical stage T3b prostate cancer treated by radical retropubic prostatectomy was diagnosed with metastatic disease by bone scan. FCH-PET imaging was performed before and after initiating androgen deprivation therapy. In the first study, whole-body emission scanning was started 5 min after injection, beginning at the pelvic region in order to image the pelvis and prostatic bed before arrival of urinary radioactivity. […] The patient was rescanned 2 weeks after initiating androgen deprivation therapy.
Patient 5: A person was initially diagnosed five years prior with locally advanced clinical stage T3NOMO prostate cancer and underwent radical prostatectomy followed by external beam radiation to the prostate bed. […] The patient was then treated with Zolex and Casodex.

yeast choline kinase = target: T1, yeast choline kinase (Saccharomyces cerevisiae, UniProt P20485); experiment: In vitro phosphorylation by yeast choline kinase; assay type: biochemical
T1 sequence (P20485 1-582): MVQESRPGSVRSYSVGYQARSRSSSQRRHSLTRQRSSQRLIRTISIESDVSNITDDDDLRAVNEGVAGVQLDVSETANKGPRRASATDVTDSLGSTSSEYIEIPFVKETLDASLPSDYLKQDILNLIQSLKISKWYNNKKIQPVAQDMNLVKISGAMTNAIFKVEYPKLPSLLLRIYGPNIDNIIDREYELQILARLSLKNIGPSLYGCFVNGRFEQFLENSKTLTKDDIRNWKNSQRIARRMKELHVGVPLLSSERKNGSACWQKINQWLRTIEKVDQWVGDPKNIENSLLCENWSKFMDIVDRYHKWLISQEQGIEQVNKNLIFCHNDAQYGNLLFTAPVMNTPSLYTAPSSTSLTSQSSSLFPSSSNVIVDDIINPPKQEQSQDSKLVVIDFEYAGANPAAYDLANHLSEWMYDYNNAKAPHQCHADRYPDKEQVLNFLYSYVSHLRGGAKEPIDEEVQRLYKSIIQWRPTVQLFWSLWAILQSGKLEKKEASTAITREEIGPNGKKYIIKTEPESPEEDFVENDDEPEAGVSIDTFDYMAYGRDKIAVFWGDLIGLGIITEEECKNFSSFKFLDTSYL
Procedure: The test tube was gently agitated throughout the incubation period. The reaction was stopped by placing the tube in a boiling water bath for 2 min. To serve as controls, some samples were placed directly in the boiling water bath after addition of all substrates. […] The percentage of radioactivity converted to the phosphorylated form was calculated.

[2] = test system: PC-3 prostate cancer cells; experiment: Analysis of radiolabeled metabolites in PC-3 prostate cancer cells; assay type: cell-based, human
Procedure: The primary hydrophilic metabolites of choline in mammals is phosphocholine and betaine. […] The HPLC system used a microprocessor-controlled solvent delivery system and a silica column (Adsorbosphere Silica (10μ), 250×4.6 mm, Alltech, Deerfield, Ill.). The column was kept at room temperature and the flow rate was maintained at 1.5 ml/min. […] Fractions of effluent were collected every 0.5 min and first counted for ^18F-radioactivity in a well-counter for experiments involving [^18F]FCH, then transferred to scintillation vials for counting for ^14C-radioactivity. The column was equilibrated for 6 min with Buffer A before injection. After the injection (<100 μl), Buffer A was delivered for 6 min which eluted betaine (3 min) from the column. […] Re-equilibration of the column with 100% A for 6 min preceded the next injection.
Methanol (1 ml) was added to each well and the cells were lysed by maintaining the temperature at 37° C. for 30 min. The methanol phase was transferred to a glass test tube. Each well was rinsed with an additional 0.5 ml methanol which was added to the original fraction. To each tube, 3 ml chloroform and 1 ml 0.25 M sodium phosphate (pH=4.5) were added to separate lipids from water-soluble molecules. After vigorous mixing of the samples for 1 min, the two phases were separated, and a 0.5 ml aliquot of each phase was counted for ^18F and ^14C radioactivity. The aqueous phase was further analyzed for water-soluble metabolites using the gradient-HPLC method previously described.
Cells incubated in 6-well plates for 2 hr with radiotracers were thoroughly washed to remove all extracellular radioactivity. The cells were lysed in methanol and the methanol solution added to chloroform to solubilize all lipophilic metabolites.

C[N+](C)(CF)CCO.[Cl-] [FCH, dimethylfluoromethyl-2-hydroxyethylammonium chloride]
decrease of SUV in ischial metastasis [1]: 68% | decrease of SUV in primary tumor [1]: 61% | decrease of SUVs in the tumors [1]: 35-40% | SUV in ischial metastasis ([1]; male): 2.4 | SUV in primary tumor ([1]; male): 3.0 | SUV index in osseous lesions ([1]; male): 8.0 | SUV values in osseous lesions of the pelvis region ([1]; male): 3.8-8.0 | injected dose of radioactivity in urine ([1]; male): 1.3% | radioactivity concentration in the brain relative to prostate gland or metastasis ([1]; male): < 2% | time of arrival of radioactivity in the urinary bladder / urine ([1]; male): about 8 min | time to plateau of radioactivity concentration in prostate and metastasis ([1]; male): ≤ 5 min | time to plateau of radioactivity concentration in the prostate bed ([1]; male): ≤ 3 min | tracer uptake in osseous lesions, FCH relative to FDG ([1]; male): 2 fold | arterial concentration relative to the peak level ([1]; male, 2 min): < 5% | SUV of osseous metastasis (left ischium) ([1]; male, 5 min): 7.7 | SUV of primary tumor ([1]; male, 5 min): 7.7 | phosphorylation rate compared with CH (yeast choline kinase; 1 μM choline): equivalent to CH | In vitro phosphorylation (yeast choline kinase; 1 μM choline, 25 mU/ml yeast choline kinase, 23° C., 10 min, n = 5): 62.0 ± 8.8% | IC50 (yeast choline kinase; choline 1-10,000 μM, 25 mU/ml choline kinase, 10 min, 23 C, read-out: apparent IC50 for inhibition of phosphorylation of radiotracer by choline): ~400 µM | ^18F-labeled species: hydrophilic metabolites, FCH ([2]; +HC-3 (5 mM hemicholinium-3)): 0.04 ± 0.01 percentage of administered dose | ^18F-labeled species: hydrophilic metabolites, P-FCH ([2]; +HC-3 (5 mM hemicholinium-3)): 0.12 ± 0.03 percentage of administered dose | ^18F-labeled species: lipophilic metabolites ([2]; +HC-3 (5 mM hemicholinium-3)): 0.01 ± 0.01 percentage of administered dose | ^18F-labeled species: hydrophilic metabolites, FCH ([2]; Control, 2 hr, 37° C.): 0.29 ± 0.05 percentage of administered dose | ^18F-labeled species: hydrophilic metabolites, P-FCH ([2]; Control, 2 hr, 37° C.): 7.1 ± 0.9 percentage of administered dose | ^18F-labeled species: lipophilic metabolites ([2]; Control, 2 hr, 37° C.): 2.4 ± 0.4 percentage of administered dose | incorporation of radioactivity into lipophilic species, FCH relative to [^14C]CH ([2]; PC-3 cells, 2 hr): 5 fold | oxidation in the cancer cells (betaine / fluorobetaine by HPLC) ([2]; PC-3 cells, 2 hr): negligible | share of cell radioactivity found as phosphorylated tracer (phosphorylfluorocholine / phosphocholine) ([2]; PC-3 cells, 2 hr): Approximately 72% | share of total cell radioactivity as lipophilic metabolites ([2]; PC-3 cells, 2 hr): 25%
